SMILES strings stand for the structures.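 Values below derive from 48-hour exposures of cells grown in 96-well plates, with endpoints linearly interpolated between the two concentrations bracketing the appropriate inhibition level. GI50: concentration for 50% inhibition of growth.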 Activity calls are given as the source filed them. No stated cut-off is given here; in the data, active = GI50 up to about 1.1 µM and inactive = higher.

Common to all, as to experiment: DTP human tumour cell line panel, 48 h
For assay [1], the system named is HOP-62.
In assay [2] the test system is SK-MEL-5.
Assay [3] relates to RXF 393.
Assay [4] deals with CAKI-1.
Assay [5] deals with ACHN.
Assay [6] has as its system K562.
The test system of assay [7] is IGROV-1.
Assay [8] relates to UACC-257.
Assay [9] concerns HT-29.
Assay [10] relates to RPMI-8226.
The subject of assay [11] is OVCAR-4.
Assay [12] relates to SF-268.
The subject of assay [13] is HCT-116.
Assay [14] relates to SF-295.
For assay [15], the system named is NCI-H23.
The subject of assay [16] is SK-OV-3.
Assay [17] deals with M14.
Assay [18] concerns MOLT-4.
Assay [19] concerns HL-60.

For the molecule `C=C(C)CC(C(=O)O)c1ccc(C)cc1` (stereo not drawn), the GI50 in assay [1], in assay [2], in [3], in assay [4], in assay [5] and in assay [6] was > 100 µM (inactive) in each case. In addition, the GI50 in assay [7], in [8], in assay [9], in assay [10], in assay [11] and in assay [12] was > 100 µM (inactive) in each case. For the same molecule, the GI50 in [13], in [14] and in assay [15] was > 100 µM (inactive) each time.

For `COc1cc(Nc2nc3cc(C(F)(F)F)ccc3nc2-c2ccccc2)cc(OC)c1OC`, the GI50 in [16] was 31.6 µM (inactive); in assay [1], 18.9 µM (inactive); in [2] it was 34.4 µM (inactive); in [3], 18.1 µM (inactive); in assay [17], > 100 µM (inactive); in [4], < 0.01 µM (active). Moreover, the GI50 was 65.5 µM (inactive) in assay [5]; > 100 µM (inactive) in [18]; > 100 µM (inactive) in [6]; 27 µM (inactive) in [7]; 73.6 µM (inactive) in assay [8]; > 100 µM (inactive) in assay [9]. Besides, the GI50 is 5.82 µM (inactive) in assay [11]; > 100 µM (inactive) in assay [12]; 39.3 µM (inactive) in assay [19]; > 10 µM (inactive) in assay [13]; 54.6 µM (inactive) in assay [14]; > 100 µM (inactive) in assay [15].

For `Cc1c2ncccc2c(C)c2c1[nH]c1ccccc12`, the GI50 in assay [16] was 17.4 µM (inactive); in assay [1], 11.8 µM (inactive); in assay [3] it was 13 µM (inactive); in [17], 17.6 µM (inactive); in [4] it was 9.23 µM (inactive); in assay [5], 12.9 µM (inactive). The GI50 was 2.02 µM (inactive) in assay [18]; 14.5 µM (inactive) in assay [6]; 12.3 µM (inactive) in assay [7]; 16.6 µM (inactive) in assay [8]; 11.3 µM (inactive) in assay [9]; 6.59 µM (inactive) in assay [10]. For the same molecule, the GI50 in assay [11] was 18 µM (inactive); in [12] it was 13.8 µM (inactive); in [13] it was 5.27 µM (inactive); in assay [14] it was 8.57 µM (inactive); in assay [15], 11.1 µM (inactive).

Take `COc1cc(-c2cc(=O)c3cc(C)c(C)c(C(=O)O)c3o2)cc(OC)c1OC`: the GI50 in assay [16], in [1], in assay [2], in [17], in [5] and in [18] was > 100 µM (inactive) each time. For the same molecule, the GI50 in assay [6], in assay [7], in [8], in assay [9], in [10] and in [11] was > 100 µM (inactive) throughout. Further, the GI50 in assay [12], in assay [13], in [14] and in assay [15] was > 100 µM (inactive) throughout.

On to `CC1=NC(C(C)C)C(=O)O1` (stereo not drawn), for which the GI50 in assay [16], in assay [1], in [2], in [17], in assay [4] and in assay [5] was > 100 µM (inactive) throughout. Further, the GI50 was > 100 µM (inactive) in assay [18]; 61.1 µM (inactive) in [6]; > 100 µM (inactive) in assay [7]; > 100 µM (inactive) in [8]; 61.1 µM (inactive) in assay [9]; 22.1 µM (inactive) in [10]. The GI50 in [11] was > 100 µM (inactive); in assay [12], 45.1 µM (inactive); in assay [19] it was > 100 µM (inactive); in [13] it was 18.5 µM (inactive); in assay [14], > 100 µM (inactive); in assay [15], > 100 µM (inactive).

On to `Cc1ccc2ccc(-c3ccccc3)c3c2c1C(=O)c1ccccc1C3=O`, for which the GI50 in [16] was 41.7 µM (inactive); in assay [1] it was 54.3 µM (inactive); in assay [2], 53.6 µM (inactive); in [3], 61 µM (inactive); in [17] it was 79.8 µM (inactive); in assay [5], 58.5 µM (inactive). Further, the GI50 in assay [18], in assay [6], in assay [7], in assay [8], in [9] and in assay [10] was > 100 µM (inactive) each time. The GI50 in assay [12] was 45.5 µM (inactive); in assay [19], > 100 µM (inactive); in assay [13], > 100 µM (inactive); in assay [14], 93.1 µM (inactive); in assay [15], > 100 µM (inactive).

For `CSC1=NC=CCN1C`, the GI50 in assay [16], in assay [1], in assay [2], in [17], in [4] and in assay [5] was > 100 µM (inactive) throughout. Besides, the GI50 in assay [18], in assay [6], in [7], in [8], in assay [9] and in assay [10] was > 100 µM (inactive) throughout. Besides, the GI50 in assay [11], in assay [12], in assay [19], in assay [13], in assay [14] and in [15] was > 100 µM (inactive) in each case.

`N#Cc1ccccc1C#C/C=C\C#Cc1ccccn1`: the GI50 was 25.1 µM (inactive) in assay [16]; 19 µM (inactive) in [1]; 2.99 µM (inactive) in [2]; 14.1 µM (inactive) in [3]; 15.5 µM (inactive) in [17]; 21.8 µM (inactive) in assay [4]. For the same molecule, the GI50 is 29.6 µM (inactive) in assay [5]; 17 µM (inactive) in assay [7]; 13.7 µM (inactive) in assay [8]; 18 µM (inactive) in assay [9]; 75.9 µM (inactive) in assay [11]; 16.1 µM (inactive) in assay [12]. Besides, the GI50 in [19] was 6.71 µM (inactive); in assay [13] it was 12 µM (inactive); in [14], 20 µM (inactive); in assay [15], 12.3 µM (inactive).

Turning to `COC1CCCc2c(OC(C)=O)ccc(OC(C)=O)c21` (stereo not drawn), the GI50 in assay [16], in assay [1], in [2], in assay [3], in [17] and in [4] was > 100 µM (inactive) throughout. The GI50 in assay [5] was > 100 µM (inactive); in assay [18], > 100 µM (inactive); in assay [6] it was > 100 µM (inactive); in assay [7], > 100 µM (inactive); in assay [11] it was 35 µM (inactive); in assay [12] it was > 100 µM (inactive). The GI50 in assay [19], in assay [13] and in assay [15] was > 100 µM (inactive) each time.

As for `CCCCCCCC/C=C1\CCC(CN(C)C)C1=O` (stereo not drawn), the GI50 was 17.2 µM (inactive) in [16]; 12.2 µM (inactive) in assay [1]; 8.45 µM (inactive) in assay [2]; 4.88 µM (inactive) in assay [17]; 3.1 µM (inactive) in assay [4]; 6.61 µM (inactive) in assay [5]. For the same molecule, the GI50 in assay [18] was 2.68 µM (inactive); in assay [6], 2.51 µM (inactive); in assay [7] it was 8.17 µM (inactive); in assay [8], 5.89 µM (inactive); in assay [9] it was 4.35 µM (inactive); in [10], 0.211 µM (active). Also, the GI50 was 13.7 µM (inactive) in assay [11]; 7.29 µM (inactive) in assay [12]; 5.05 µM (inactive) in [19]; 2.96 µM (inactive) in assay [13]; 6.5 µM (inactive) in [14]; 10.7 µM (inactive) in assay [15].

Regarding `CC(=O)OCC12CC(CC1OC(C)=O)c1ccccc12` (stereo not drawn), the GI50 in assay [16], in assay [1], in assay [2], in [17], in [4] and in assay [5] was > 100 µM (inactive) in each case. The GI50 in [18], in [6], in assay [7], in assay [8], in assay [9] and in assay [10] was > 100 µM (inactive) throughout. Besides, the GI50 in assay [11], in assay [12], in [19], in [13], in [14] and in assay [15] was > 100 µM (inactive) in each case.

With `CCOC(=O)C(Cc1cn(S(=O)(=O)c2ccccc2)c2ccccc12)(NC(C)=O)C(=O)OCC`, the GI50 in assay [1] is 27.2 µM (inactive); in assay [2], 15.8 µM (inactive); in assay [17], 32.1 µM (inactive); in assay [4] it was 49.1 µM (inactive); in assay [5], 32.3 µM (inactive); in assay [18], 19 µM (inactive). In addition, the GI50 in assay [6] is 29 µM (inactive); in assay [7], 46.7 µM (inactive); in assay [8], 24.5 µM (inactive); in assay [9], 58.5 µM (inactive); in assay [10], 13.1 µM (inactive); in assay [11], 33.3 µM (inactive). In addition, the GI50 was 40 µM (inactive) in assay [12]; 16.5 µM (inactive) in assay [19]; 24.7 µM (inactive) in assay [13]; 29.1 µM (inactive) in assay [14]; 26.3 µM (inactive) in assay [15].

(Values after ChEMBL document CHEMBL1201862, “PubChem BioAssay data set” (2004).)
